{"source": "paper PMC9923211", "about": "“Functional characterization and key residues engineering of a regiopromiscuity O-methyltransferase involved in benzylisoquinoline alkaloid biosynthesis in Nelumbo nucifera” (Horticulture Research, 2022)", "experiment_in_all_cases": "UPLC-MS methylation assay, Michaelis-Menten fit", "key": {"NnOMT6": {"molecular_target": "T1, NnOMT6 (Nelumbo nucifera, UniProt A0A1U7Z1M5)", "T1 construct": "gene LOC104585771", "assay_type": "biochemical", "details": "50 mM potassium phosphate pH 8.0, 37°C, 30 min"}, "[1]": {"test_system": "COc1cc2c(cc1O)[C@@H]1Cc3ccc(OC)c(O)c3CN1CC2", "assay_type": "biochemical, Nelumbo nucifera", "details": "SAM as methyl donor, 50 mM potassium phosphate pH 8.0, 37°C, 30 min"}, "[2]": {"test_system": "COc1c(O)cc2c3c1-c1ccccc1C[C@@H]3NCC2", "assay_type": "biochemical, Nelumbo nucifera", "details": "SAM as methyl donor, 50 mM potassium phosphate pH 8.0, 37°C, 30 min"}}}
{"molecule": "C[S+](CC[C@H](N)C(=O)O)C[C@H]1O[C@@H](n2cnc3c(N)ncnc32)[C@H](O)[C@@H]1O", "note": "(some centres unmarked) [SAM]", "values": [{"measurement": "Km", "setting": "NnOMT6; 200 μM caffeic acid as acceptor", "result": 163, "unit": "µM"}]}
{"molecule": "Oc1ccc(C[C@@H]2NCCc3cc(O)c(O)cc32)cc1", "note": "[compound 1, (S)-norcoclaurine]", "values": [{"measurement": "Km", "setting": "NnOMT6; 200 μM SAM", "result": 282, "unit": "µM"}]}
{"molecule": "O=C(O)/C=C/c1ccc(O)c(O)c1", "note": "[compound 16, caffeic acid]", "values": [{"measurement": "Km", "setting": "NnOMT6; 200 μM SAM", "result": 216, "unit": "µM"}]}
{"molecule": "NnOMT6 (Nelumbo nucifera; N323A)", "values": [{"measurement": "Km", "setting": "[1]", "result": 86.35, "unit": "µM"}, {"measurement": "Km", "setting": "[2]", "result": 132.77, "unit": "µM"}]}
